Several values for one entry are separate records, joined by “and”; a condition that tells them apart may be missing. Identical values can stand only once. Like-named read-outs stand apart in the source and are kept apart here. Values belong to the compound of their own block, whether it stands above or below them.
What was measured:
[1] = tested on: Parkinson's disease model rats; assay: Apomorphine-induced rotation in Parkinson's disease model rats (6-OHDA); format: in vivo, SD rat; conditions: individual rats, Day 12, 0.015% w/w in feed, apomorphine 1 mg/kg i.p., 3 minutes
Description: A 8-week old male SD rat under isoflurane anesthesia was skin-incised on the head and then a connective tissue was dissected and removed. Then, the tissue was fixed on a brain stereotactic fixture, bregma and lambda coordinates were measured, a microinjection cannula was inserted at four points of administration coordinates AP (+1.3, +0.4, −0.4, −1.3 mm) and DV (−5.0 mm) at the depth of 5.0 mm from the brain surface, and 2 μL of a 3.5 mg/mL solution of 6-OHDA (6-hydroxydopamine) in a saline with 0.02% ascorbic acid as a solvent was infused at a rate of 1 μL/min. Similar surgical procedure was conducted for a sham group and saline with ascorbic acid alone was infused. Five minutes after infusion, the glass pipette was kept to be inserted for diffusing the solution. […] A rat with Parkinson's disease rotates to the left after apomorphine administration. An individual which rotated seven or more times in one minute after the initiation of the rotation was used as a Parkinson's disease model.
The rats were allowed to freely access to MF feed containing a 0.015% w/w RXR partial agonist. After 6 and 12 days, to the animal was intraperitoneally administered a 1 mg/mL solution of apomorphine in saline at 1 mg/kg, and the rotatory movement number for 3 minutes immediately after the administration was recorded.

[2] = Brain-migration ability: plasma and cerebral concentration by HPLC; format: in vivo, male ICR mice; conditions: for concentration at 1 h: mouse, one hour after 30 mg/kg single-dose administration, male ICR mice, ave ± SEM
Description: A compound was administered at a dose of 30 mg/kg mouse body weight. A compound to be administered was prepared by dissolving it in a 1% final concentration of ethanol and suspending the solution in a 0.5% carboxymethyl cellulose (CMC) solution. Animals subjected to administration were male ICR mice (6 week old), and they were fasted from 17 o'clock the day before.
The collected blood was put in a heparinized tube, mixed with inversion and then centrifuged (600 g) for 5 minutes to obtain plasma. To 100 μL of the plasma were added 100 μL of an ammonium acetate buffer solution and 1 mL of ethyl acetate, and the mixture was stirred by a vortex mixer for 30 seconds and then left at room temperature for 10 minutes. Then, the mixture was centrifuged 30 seconds and 800 μL of the supernatant was concentrated by a centrifugal evaporator. To the concentrate was added 100 μL of an HPLC eluent to prepare an HPLC sample.
Under ether anesthesia, the brain was removed from a mouse after administrating a drug, and about 100 mg of the brain was weighed into a 2 mL Eppendorf tube. After adding 1000 μL of methanol per 100 mg of the brain, the mixture was homogenized. After the homogenization, the homogenate was centrifuged at 10,000 g at 10 to 15° C. for 10 minutes. Then, in a separate 1.5 mL Eppendorf tube, 700 μL of the supernatant […] was dispensed and concentrated to dryness by a centrifugal evaporator. To the concentrate was added 70 μL of the HPLC eluent, to give a solution (10× concentrate).
A 30 μM solution of the drug in methanol was prepared and diluted with the HPLC eluent (5 mM AcONH4, pH5, MeOH) to 10, 3, 1 and 0.3 μM. Using these, a calibration curve was formed. The plasma and the […] samples were subjected to measurement and a measured value was converted to a concentration.

[3] = mice, oral 30 mg/kg/day for one week; cited from earlier work
[4] = tested on: senescence-accelerated mouse (SAMP8); assay: Y-maze test in senescence-accelerated mouse (SAMP8); format: in vivo; conditions: SAMP8 mice, 0.015% in feed; FIG. 5A
Description: In this test, the mice used in the step-through test were used as they were.
After the step-through test, a Y-maze for a mouse (arm length: 40 cm) was used and mice were allowed to freely move for 8 minutes. In a Y-shaped system, a near-side arm, a left-back arm and a right-back arm are A, B, and C, respectively, and the number of entry into each arm was recorded (here, “entry” is defined that both hind paws of a mouse enter an arm, and entry of forepaws only is defined as “not enter”). This is called as a Y-maze.

[5] = tested on: senescence-accelerated mouse (SAMP8); assay: Blood data and organ weight in senescence-accelerated mouse (SAMP8) after 9 weeks of drug feed; format: in vivo; conditions: drug feed for 9 weeks, FIG. 7B, C
Description: After MRI imaging, the mice used in the above test were subjected to blood collection and then dissected, and blood data and the weight of each organ were recorded. Autopsy was conducted for the mice fed with MF feed containing a drug for 9 weeks. The animals were not fasted the day before the autopsy.

[6] = tested on: multiple sclerosis model mice (EAE mice); assay: Multiple sclerosis model mice (EAE mice), clinical score; format: in vivo, C57BL6/J mice; conditions: 0.015 w/w % in feed, vs vehicle group, FIG. 8

Compound: CN1CCc2cccc3c2[C@H]1Cc1ccc(O)c(O)c1-3 [Apomorphine, apomorphine]
rotatory movement number, Left [1]: 11 and 19 and 9 and 4 and 16
rotatory movement number, Right [1]: 0

concentration at 1 h ([2]; brain, read-out: Brain concentration): 11.4 ± 3.7 µM
concentration at 1 h ([2]; plasma, read-out: Plasma concentration): 15.8 ± 6 µM
Compound: Cc1cc2c(cc1-n1nnc3cc(C(=O)O)ccc31)C(C)(C)CCC2(C)C [CBt-PMN]
migration to the brain compared with bexarotene ([2]; 30 mg/kg, mice, one hour): migrates more smoothly to the brain than bexarotene

Compound: CCN(c1ccc(OCC(C)C)c(C(C)C)c1)c1ccc(C(=O)O)cn1 [NEt-4IB]
rotatory movement number, Left ([1]; listed as NEt-41B): 53 and 18 and 6 and 0 and 32
rotatory movement number, Right ([1]; listed as NEt-41B): 0 (4×) and 75
liver weight vs vehicle group [3]: not a difference
tendency to weight gain (body weight change over a week) [3]: not observed
triglyceride level vs vehicle group [3]: not a difference

blood triglyceride ([5]; SAMP8 mice): increase
enlargement of the liver ([5]; SAMP8 mice): observed
blood triglyceride ([5]; SAMR1 mice): increase
enlargement of the liver ([5]; SAMR1 mice): observed
Compound: C=C(c1ccc(C(=O)O)cc1)c1cc2c(cc1C)C(C)(C)CCC2(C)C [bexarotene]
effect on SAMP8 hyperactivity (number of entry in the Y-maze arm) [4]: no effects
clinical score / amelioration of pathological model [6]: did not ameliorate
